Measurements published in ChEMBL document CHEMBL1201862, “PubChem BioAssay data set” (2004).
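1) Cells in 96-well plates. 2) Compound, 48 h, 5 concentrations. 3) Linear interpolation between surrounding doses. 4) Unreached endpoint = highest concentration. At the GI50, growth is halved.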 Active and inactive are the calls of the source. No stated cut-off is given here; in the data, active = GI50 up to about 1.1 µM and inactive = higher.

Tests used:
Assay in all cases: NCI-60 cell line screen, 48 h
UACC-62 = system: UACC-62
BT-549 = system: BT-549
OVCAR-8 = system: OVCAR-8
UO-31 = system: UO-31
HOP-92 = system: HOP-92
HCT-15 = system: HCT-15
T47D = system: T47D
IGROV-1 = system: IGROV-1
Hs-578T = system: Hs-578T
SK-OV-3 = system: SK-OV-3
RPMI-8226 = system: RPMI-8226
COLO 205 = system: COLO 205
CCRF-CEM = system: CCRF-CEM
TK-10 = system: TK-10
NCI-H460 = system: NCI-H460
ACHN = system: ACHN
SF-268 = system: SF-268
NCI/ADR-RES = system: NCI/ADR-RES
SN12C = system: SN12C
K562 = system: K562
SK-MEL-28 = system: SK-MEL-28
SF-295 = system: SF-295
MDA-MB-231 = system: MDA-MB-231
PC-3 = system: PC-3
CAKI-1 = system: CAKI-1
KM12 = system: KM12
SW-620 = system: SW-620
DU-145 = system: DU-145
A498 = system: A498
LOX IMVI = system: LOX IMVI
NCI-H226 = system: NCI-H226
HL-60 = system: HL-60
NCI-H522 = system: NCI-H522
RXF 393 = system: RXF 393
SR = system: SR
HT-29 = system: HT-29
HCC 2998 = system: HCC 2998
Malme-3M = system: Malme-3M
SK-MEL-5 = system: SK-MEL-5
OVCAR-4 = system: OVCAR-4
MDA-N = system: MDA-N
UACC-257 = system: UACC-257
786-0 = system: 786-0
SNB-75 = system: SNB-75
A549 = system: A549
NCI-H23 = system: NCI-H23
SF-539 = system: SF-539
HOP-62 = system: HOP-62
EKVX = system: EKVX
MOLT-4 = system: MOLT-4
OVCAR-3 = system: OVCAR-3
HCT-116 = system: HCT-116
SNB-19 = system: SNB-19
OVCAR-5 = system: OVCAR-5
M14 = system: M14
U-251 = system: U-251
MDA-MB-435 = system: MDA-MB-435
MCF7 = system: MCF7
SK-MEL-2 = system: SK-MEL-2

Measured: GI50

OCc1ccc2c(c1)CC1(Cc3ccccc3C1)C2
inactive: UACC-62 20.1 µM | BT-549 3.77 µM | OVCAR-8 21.2 µM | UO-31 11.8 µM | HOP-92 17.1 µM | T47D 26.6 µM | IGROV-1 > 10 µM | Hs-578T 15.8 µM | SK-OV-3 25.6 µM | RPMI-8226 15.8 µM | COLO 205 15.6 µM | CCRF-CEM 4.39 µM | TK-10 21.2 µM | NCI-H460 19.6 µM | ACHN 21 µM | SF-268 18.1 µM | NCI/ADR-RES 16.8 µM | SN12C 17.4 µM | K562 7.11 µM | SK-MEL-28 19.3 µM | SF-295 18.1 µM | MDA-MB-231 10.1 µM | PC-3 10.8 µM | CAKI-1 15.9 µM | KM12 14.4 µM | SW-620 18.4 µM | DU-145 33.8 µM | A498 26.7 µM | LOX IMVI 15.4 µM | NCI-H226 28.1 µM | HL-60 10.7 µM | NCI-H522 22.5 µM | RXF 393 15.7 µM | SR 22.3 µM | HT-29 16.8 µM | HCC 2998 27.7 µM | Malme-3M 13.6 µM | SK-MEL-5 11.5 µM | OVCAR-4 34 µM | MDA-N 4.86 µM | UACC-257 15.1 µM | 786-0 15.1 µM | SNB-75 13.5 µM | A549 20.6 µM | NCI-H23 33 µM | SF-539 18.3 µM | HOP-62 25.6 µM | EKVX 26.1 µM | MOLT-4 > 10 µM | OVCAR-3 23 µM | HCT-116 14.3 µM
25.8 µM: HCT-15

CC12CC(=O)Nc3ccccc3N1C(c1ccccc1)=NO2 (centres undefined)
inactive: UACC-62 > 100 µM | BT-549 > 100 µM | OVCAR-8 > 100 µM | UO-31 > 100 µM | HOP-92 > 100 µM | IGROV-1 > 100 µM | Hs-578T > 100 µM | SNB-19 > 100 µM | SK-OV-3 > 100 µM | RPMI-8226 > 100 µM | COLO 205 > 100 µM | CCRF-CEM > 100 µM | TK-10 > 100 µM | NCI-H460 > 100 µM | OVCAR-5 > 100 µM | ACHN > 100 µM | SF-268 > 100 µM | NCI/ADR-RES > 100 µM | SN12C > 100 µM | K562 > 100 µM | SF-295 > 100 µM | MDA-MB-231 > 100 µM | PC-3 > 100 µM | CAKI-1 > 100 µM | KM12 > 100 µM | M14 > 100 µM | SW-620 > 100 µM | DU-145 > 100 µM | A498 > 100 µM | U-251 > 100 µM | NCI-H226 > 100 µM | HL-60 > 100 µM | NCI-H522 > 100 µM | RXF 393 > 100 µM | SR > 100 µM | HT-29 > 100 µM | MDA-MB-435 > 100 µM | HCC 2998 > 100 µM | Malme-3M > 100 µM | SK-MEL-5 > 100 µM | OVCAR-4 > 100 µM | MDA-N > 100 µM | MCF7 > 100 µM | UACC-257 > 100 µM | 786-0 > 100 µM | SNB-75 > 100 µM | SK-MEL-2 > 100 µM | A549 > 100 µM | NCI-H23 > 100 µM | SF-539 > 100 µM | HOP-62 > 100 µM | EKVX > 100 µM | MOLT-4 > 100 µM | OVCAR-3 > 100 µM | HCT-116 > 100 µM
> 100 µM: HCT-15

O=C(O)c1cc(O)nc(SCc2ccccc2)n1
inactive: UACC-62 > 100 µM | BT-549 > 100 µM | OVCAR-8 > 100 µM | UO-31 > 100 µM | HOP-92 > 100 µM | T47D > 100 µM | IGROV-1 > 100 µM | SNB-19 > 100 µM | TK-10 > 100 µM | NCI-H460 > 100 µM | OVCAR-5 > 100 µM | ACHN > 100 µM | SF-268 > 100 µM | NCI/ADR-RES > 100 µM | SN12C > 100 µM | K562 > 100 µM | SK-MEL-28 > 100 µM | SF-295 > 100 µM | MDA-MB-231 > 100 µM | PC-3 > 100 µM | CAKI-1 > 100 µM | KM12 > 100 µM | M14 > 100 µM | SW-620 > 100 µM | DU-145 > 100 µM | A498 > 100 µM | LOX IMVI > 100 µM | U-251 > 100 µM | NCI-H226 > 100 µM | HL-60 > 100 µM | NCI-H522 > 100 µM | RXF 393 > 100 µM | SR > 100 µM | HT-29 > 100 µM | MDA-MB-435 > 100 µM | Malme-3M > 100 µM | SK-MEL-5 > 100 µM | OVCAR-4 > 100 µM | MDA-N > 100 µM | UACC-257 > 100 µM | 786-0 > 100 µM | SNB-75 > 100 µM | SK-MEL-2 > 100 µM | A549 > 100 µM | NCI-H23 > 100 µM | HOP-62 > 100 µM | EKVX > 100 µM | MOLT-4 > 100 µM | OVCAR-3 > 100 µM | HCT-116 > 100 µM
> 100 µM: HCT-15
